Assay results taken from patent US11395857B2, “Radiolabeled melanocortin 1 receptor-specific alpha-melanocyte-stimulating hormone analogues for imaging or therapy” (PROVINCIAL HEALTH SERVICES AUTHORITY, priority 2018, dated 2022).

Assays:
[1] = Biodistribution of 177Lu-labeled αMSH analogues in mice bearing SK-MEL-1 human melanoma; conditions: male, mouse, total radioactivity; for tissue to tissue ratio at 1 h: 1 h p.i.; for tissue to tissue ratio at 1 h / tissue to tissue ratio at 4 h / tissue to tissue ratio at 24 h / tissue to tissue ratio at 120 h: NRG mice, SK-MEL-1 melanoma; for tissue to tissue ratio at 4 h: 4 h p.i.; for tissue to tissue ratio at 24 h: 24 h p.i.; for tissue to tissue ratio at 120 h: 120 h p.i.
Method: The SK-MEL-1 human melanoma cell line (HTB-67) was obtained commercially from ATCC. SK-MEL-1 cells were cultured in Eagle's Minimum Essential Medium (StemCell Technologies) under the same conditions as described in Example 1. Immunodeficient NOD.Cg-Rag1tm1Mom I12rgtm1Wjl/SzJ (NRG) male mice were obtained from an in-house breeding colony at the BC Cancer Research Centre. For tumor implantation, male NRG mice were anesthetized by inhalation with 2% isoflurane, and 5 million SK-MEL-1 cells were inoculated subcutaneously on the right dorsal flank. Mice were used for imaging or biodistribution studies when the tumors reached 6-8 mm in diameter in 16-20 days.
Biodistribution studies were performed as described in Example 3.

B16F10 mouse melanoma = experiment: SPECT/CT imaging of mice bearing B16F10 mouse melanoma; assay type: in vivo, C57BL/6J mice; conditions: 24 h p.i.
Method: SPECT/CT imaging experiments were conducted using a preclinical U-SPECT-II/CT scanner (MILabs). For SPECT scans, each tumour-bearing mouse was injected with approximately 37 MBq of ^177Lu-labeled αMSH analogues via tail vein under anesthesia. After the injection, mice were allowed to recover and roam freely in their cages. At 1, 4, 24, and 120 h p.i., the mice were sedated again with 2% isoflurane inhalation and positioned in the scanner, and kept warm by a heating pad. A 3 min CT scan was conducted to acquire anatomical information, followed by a 60 min static emission scan in list mode with an extra ultrahigh-sensitivity multipinhole mouse collimator. The images were reconstructed using the ordered subset expectation maximization algorithm (4 iterations, 32 subsets) and a 1 mm post-processing Gaussian filter. The radioactivity in the SPECT scans were decay corrected to the injection time in the PMOD software, and converted to DICOM for quantitation and visualization in the Inveon Research Workplace software (Siemens). SPECT images of all six αMSH analogues radiolabeled with ^177Lu in mice bearing B16F10 mouse melanoma at 24 h p.i. are showing in FIG. 5. […] The sustained tumour uptake is particularly beneficial for radioligand therapy.

[2] = NRG (NOD.Cg-Rag1tm1Mom I12rgtm1Wjl/SzJ), fat, iv
[3] = NRG (NOD.Cg-Rag1tm1Mom I12rgtm1Wjl/SzJ), seminal glands, iv
[4] = NRG (NOD.Cg-Rag1tm1Mom Il2rgtm1Wjl/SzJ), SK-MEL-1 tumour
[5] = NRG (NOD.Cg-Rag1tm1Mom Il2rgtm1Wjl/SzJ), adrenal glands
[6] = NRG (NOD.Cg-Rag1tm1Mom Il2rgtm1Wjl/SzJ), blood
[7] = NRG (NOD.Cg-Rag1tm1Mom Il2rgtm1Wjl/SzJ), bone
[8] = NRG (NOD.Cg-Rag1tm1Mom Il2rgtm1Wjl/SzJ), brain
[9] = NRG (NOD.Cg-Rag1tm1Mom Il2rgtm1Wjl/SzJ), heart
[10] = NRG (NOD.Cg-Rag1tm1Mom Il2rgtm1Wjl/SzJ), intestine
[11] = NRG (NOD.Cg-Rag1tm1Mom Il2rgtm1Wjl/SzJ), kidneys
[12] = NRG (NOD.Cg-Rag1tm1Mom Il2rgtm1Wjl/SzJ), liver
[13] = NRG (NOD.Cg-Rag1tm1Mom Il2rgtm1Wjl/SzJ), lungs
[14] = NRG (NOD.Cg-Rag1tm1Mom Il2rgtm1Wjl/SzJ), muscle
[15] = NRG (NOD.Cg-Rag1tm1Mom Il2rgtm1Wjl/SzJ), pancreas
[16] = NRG (NOD.Cg-Rag1tm1Mom Il2rgtm1Wjl/SzJ), spleen
[17] = NRG (NOD.Cg-Rag1tm1Mom Il2rgtm1Wjl/SzJ), stomach
[18] = NRG (NOD.Cg-Rag1tm1Mom Il2rgtm1Wjl/SzJ), testes
[19] = NRG (NOD.Cg-Rag1tm1Mom Il2rgtm1Wjl/SzJ), thyroid
[20] = NRG (NOD.Cg-Rag1tm1Mom Il2rgtm1Wjl/SzJ), tumour/blood
[21] = NRG (NOD.Cg-Rag1tm1Mom Il2rgtm1Wjl/SzJ), tumour/kidney
[22] = NRG (NOD.Cg-Rag1tm1Mom Il2rgtm1Wjl/SzJ), tumour/muscle
[23] = NRG (NOD.Cg-Rag1tm1Mom Il2rgtm1Wjl/SzJ), urine

tissue uptake at 1 h [1, 2]: 1.18 ± 0.08 %ID/g
tissue uptake at 4 h [1, 2]: 0.45 ± 0.26 %ID/g
tissue uptake at 24 h [1, 2]: 0.1 ± 0.05 %ID/g
tissue uptake at 120 h [1, 2]: 0.08 ± 0.02 %ID/g
tissue uptake at 1 h [1, 3]: 0.59 ± 0.08 %ID/g
tissue uptake at 4 h [1, 3]: 1.53 ± 2.82 %ID/g
tissue uptake at 24 h [1, 3]: 0.06 ± 0.01 %ID/g
tissue uptake at 120 h [1, 3]: 0.03 ± 0.01 %ID/g
tissue uptake at 1 h [1, 4]: 10.5 ± 3.29 %ID/g
tissue uptake at 4 h [1, 4]: 14 ± 2.36 %ID/g
tissue uptake at 24 h [1, 4]: 10.1 ± 2.13 %ID/g
tissue uptake at 120 h [1, 4]: 4.8 ± 0.26 %ID/g
tissue uptake at 1 h [1, 5]: 2.99 ± 2.15 %ID/g
tissue uptake at 4 h [1, 5]: 1.21 ± 0.59 %ID/g
tissue uptake at 24 h [1, 5]: 0.27 ± 0.13 %ID/g
tissue uptake at 120 h [1, 5]: 0.3 ± 0.16 %ID/g
tissue uptake at 1 h [1, 6]: 9.63 ± 0.78 %ID/g
tissue uptake at 4 h [1, 6]: 2.46 ± 0.64 %ID/g
tissue uptake at 24 h [1, 6]: 0.07 ± 0.03 %ID/g
tissue uptake at 120 h [1, 6]: 0.02 %ID/g
tissue uptake at 1 h [1, 7]: 1.1 ± 0.5 %ID/g
tissue uptake at 4 h [1, 7]: 0.35 ± 0.08 %ID/g
tissue uptake at 24 h [1, 7]: 0.15 ± 0.02 %ID/g
tissue uptake at 120 h [1, 7]: 0.26 ± 0.39 %ID/g
tissue uptake at 1 h [1, 8]: 0.17 ± 0.02 %ID/g
tissue uptake at 4 h [1, 8]: 0.06 ± 0.01 %ID/g
tissue uptake at 24 h [1, 8]: 0.01 %ID/g
tissue uptake at 120 h [1, 8]: 0.01 %ID/g
tissue uptake at 1 h [1, 9]: 2.5 ± 0.3 %ID/g
tissue uptake at 4 h [1, 9]: 0.84 ± 0.23 %ID/g
tissue uptake at 24 h [1, 9]: 0.14 ± 0.04 %ID/g
tissue uptake at 120 h [1, 9]: 0.08 ± 0.02 %ID/g
tissue uptake at 1 h [1, 10]: 1.42 ± 0.22 %ID/g
tissue uptake at 4 h [1, 10]: 0.79 ± 0.5 %ID/g
tissue uptake at 24 h [1, 10]: 0.19 ± 0.03 %ID/g
tissue uptake at 120 h [1, 10]: 0.08 ± 0.01 %ID/g
tissue uptake at 1 h [1, 11]: 13.4 ± 2.53 %ID/g
tissue uptake at 4 h [1, 11]: 12.8 ± 2.29 %ID/g
tissue uptake at 24 h [1, 11]: 6.48 ± 1.25 %ID/g
tissue uptake at 120 h [1, 11]: 1.69 ± 0.13 %ID/g
tissue uptake at 1 h [1, 12]: 6.91 ± 1.09 %ID/g
tissue uptake at 4 h [1, 12]: 5.77 ± 1.62 %ID/g
tissue uptake at 24 h [1, 12]: 4.36 ± 1.11 %ID/g
tissue uptake at 120 h [1, 12]: 2.42 ± 0.33 %ID/g
tissue uptake at 1 h [1, 13]: 6.59 ± 1.06 %ID/g
tissue uptake at 4 h [1, 13]: 2.5 ± 0.67 %ID/g
tissue uptake at 24 h [1, 13]: 0.86 ± 0.87 %ID/g
tissue uptake at 120 h [1, 13]: 0.15 ± 0.12 %ID/g
tissue uptake at 1 h [1, 14]: 0.98 ± 0.12 %ID/g
tissue uptake at 4 h [1, 14]: 0.36 ± 0.11 %ID/g
tissue uptake at 24 h [1, 14]: 0.05 ± 0.01 %ID/g
tissue uptake at 120 h [1, 14]: 0.02 ± 0.01 %ID/g
tissue uptake at 1 h [1, 15]: 1.4 ± 0.24 %ID/g
tissue uptake at 4 h [1, 15]: 0.49 ± 0.08 %ID/g
tissue uptake at 24 h [1, 15]: 0.1 ± 0.02 %ID/g
tissue uptake at 120 h [1, 15]: 0.05 %ID/g
tissue uptake at 1 h [1, 16]: 3.06 ± 0.53 %ID/g
tissue uptake at 4 h [1, 16]: 1.45 ± 0.33 %ID/g
tissue uptake at 24 h [1, 16]: 1.2 ± 0.56 %ID/g
tissue uptake at 120 h [1, 16]: 0.98 ± 0.29 %ID/g
tissue uptake at 1 h [1, 17]: 0.56 ± 0.1 %ID/g
tissue uptake at 4 h [1, 17]: 0.44 ± 0.25 %ID/g
tissue uptake at 24 h [1, 17]: 0.36 ± 0.2 %ID/g
tissue uptake at 120 h [1, 17]: 0.13 ± 0.05 %ID/g
tissue uptake at 1 h [1, 18]: 1.58 ± 0.32 %ID/g
tissue uptake at 4 h [1, 18]: 0.84 ± 0.2 %ID/g
tissue uptake at 24 h [1, 18]: 0.22 ± 0.04 %ID/g
tissue uptake at 120 h [1, 18]: 0.16 ± 0.04 %ID/g
tissue uptake at 1 h [1, 19]: 4.03 ± 0.45 %ID/g
tissue uptake at 4 h [1, 19]: 3.11 ± 0.46 %ID/g
tissue uptake at 24 h [1, 19]: 2.49 ± 0.64 %ID/g
tissue uptake at 120 h [1, 19]: 1.83 ± 0.21 %ID/g
tissue to tissue ratio at 1 h [1, 20]: 1.08 ± 0.3
tissue to tissue ratio at 4 h [1, 20]: 5.84 ± 0.96
tissue to tissue ratio at 24 h [1, 20]: 165 ± 50.1
tissue to tissue ratio at 120 h [1, 20]: 246 ± 28.6
tissue to tissue ratio at 1 h [1, 21]: 0.77 ± 0.12
tissue to tissue ratio at 4 h [1, 21]: 1.1 ± 0.08
tissue to tissue ratio at 24 h [1, 21]: 1.55 ± 0.1
tissue to tissue ratio at 120 h [1, 21]: 2.85 ± 0.22
tissue to tissue ratio at 1 h [1, 22]: 10.6 ± 2.98
tissue to tissue ratio at 4 h [1, 22]: 41.5 ± 9.8
tissue to tissue ratio at 24 h [1, 22]: 201 ± 10.4
tissue to tissue ratio at 120 h [1, 22]: 269 ± 79.1
excreta dose per gram or mL at 1 h [1, 23]: 376 ± 154 %ID/g
excreta dose per gram or mL at 4 h [1, 23]: 154 ± 39.2 %ID/g
excreta dose per gram or mL at 24 h [1, 23]: 5.39 ± 1.23 %ID/g
excreta dose per gram or mL at 120 h [1, 23]: 1.12 ± 0.38 %ID/g
Tumour visualization with SPECT imaging (B16F10 mouse melanoma): clearly visualized
SMILES: CCCC[C@H](NC(=O)CN1CCC(NC(=O)[C@H](CCCCNC(=O)CN2CCN(CC(=O)O)CCN(CC(=O)O)CCN(CC(=O)O)CC2)NC(=O)[C@H](CCC(=O)O)NC(=O)CCCc2ccc(I)cc2)CC1)C(=O)N[C@H]1CC(=O)NCCCC[C@@H](C(N)=O)N(C)C(=O)[C@H](Cc2c[nH]c3ccccc23)NC(=O)[C@H](CCCNC(=N)N)N(C)C(=O)[C@@H](Cc2ccccc2)NC(=O)[C@H](Cc2c[nH]cn2)NC1=O [^177Lu-labeled CCZ01118, metal not drawn]
